US8354269B2 (priority 2008, dated 2013)
Where two headings read alike, the source gives them in different places.

Tests used:
[1] = system: Clostridium autoethanogenum DSM10061
Experimental: (§1) High Performance Liquid Chromatography (HPLC) was used to characterize the level of substrates and products such as for acetate, ethanol, fructose, xylose and pyruvate. HPLC System Agilent 1100 Series. Mobile Phase: 0.0025N Sulphuric Acid. Flow and pressure: 0.800 mL/min. Column: Alltech IOA; Catalog #9648, 150×6.5 mm, particle size 5 μm. Temperature of column: 60° C. Detector: Refractive Index. Temperature of detector: 45° C.
(§2) Method for sample preparation: 400 μL of sample+50 μL of 0.15M ZnSO4+50 μL of 0.15M Ba(OH)2 into an Eppendorf tube. Centrifuge 10 min at 12,000 rpm, 4° C. Transfer 200 μL supernatant into an HPLC vial and inject into the HPLC instrument 5 μL.
The serum bottles were charged with CO containing gas (2% H2; 30% N2; 47% CO; 21% CO2) to an overpressure of 30 psi. The gas was purged and refreshed at time=54 h. Growth was monitored by measuring the optical density at 600 nm (OD600nm) and metabolites were detected by HPLC.

[2] = system: Clostridium autoethanogenum culture 19630
Experimental: Sterile 234 ml serum bottles were purged three times with 95% CO, 5% CO2 gas and then evacuated to a vacuum of −5 psi. The serum bottles were charged with 25 ml of LM33 media. Additional NiCl2 solutions were optionally added to the serum bottle (to final concentrations of 0.1 mM and 1 mM) which were inoculated with 1 ml of an actively growing Clostridium autoethanogenum culture 19630 from a continuous bioreactor. The headspace of the serum bottle was then filled with CO containing gas to 30 psi (composition 100% CO). The serum bottles were incubated at 37° C. and continuously agitated. Samples were taken at intervals and the headspace was purged and refreshed up to 30 psi following sampling.

[3] = system: Clostridium autoethanogenum culture 19630; conditions: NiCl2 1 mM, fructose 3 g/L
Experimental: To determine the cell density in these experiments, the absorbance of the samples was measured at 600 nm (spectrophotometer) and the dry mass determined by extrapolation.
as §1, §2
Sterile 234 ml serum bottles were purged three times with 95% CO, 5% CO2 gas and then evacuated to a vacuum of −5 psi. The serum bottles were charged with 25 ml of LM33 media. NiCl2 solution (to final concentrations of 1 mM) and fructose (3 g/L) were added to the serum bottle which was inoculated with 1 ml of an actively growing Clostridium autoethanogenum culture 19630 from a continuous bioreactor. The headspace of the serum bottle was then filled with CO containing gas to 30 psi (composition 100% CO). The serum bottles were incubated at 37° C. and continuously agitated. Samples were taken at intervals and the headspace was purged and refreshed up to 30 psi following sampling.

SMILES: [Cl][Ni][Cl] [Nickel, nickel chloride]
- Ethanol ([1]; Nickel 200 μM, 0 h): 0.22 ± 0.02 g/L
- OD600 nm ([1]; Nickel 200 μM, 0 h): 0.009 ± 0.001
- Ethanol ([1]; Nickel 200 μM, 30 h): 0.22 ± 0.03 g/L
- OD600 nm ([1]; Nickel 200 μM, 30 h): 0.038 ± 0.010
- Acetate ([1]; Nickel 200 μM, 54 h): 0.12 ± 0.02 g/L
- Ethanol ([1]; Nickel 200 μM, 54 h): 0.23 ± 0.03 g/L
- OD600 nm ([1]; Nickel 200 μM, 54 h): 0.052 ± 0.022
- Acetate ([1]; Nickel 200 μM, 102 h): 0.83 ± 0.53 g/L
- Ethanol ([1]; Nickel 200 μM, 102 h): 0.23 ± 0.01 g/L
- OD600 nm ([1]; Nickel 200 μM, 102 h): 0.223 ± 0.141
- Acetate ([1]; Nickel 200 μM, 127 h): 1.48 ± 0.54 g/L
- Ethanol ([1]; Nickel 200 μM, 127 h): 0.30 ± 0.19 g/L
- OD600 nm ([1]; Nickel 200 μM, 127 h): 0.333 ± 0.131
- Ethanol ([1]; Nickel 400 μM, 0 h): 0.22 ± 0.02 g/L
- OD600 nm ([1]; Nickel 400 μM, 0 h): 0.010 ± 0.001
- Ethanol ([1]; Nickel 400 μM, 30 h): 0.22 ± 0.02 g/L
- OD600 nm ([1]; Nickel 400 μM, 30 h): 0.065 ± 0.002
- Acetate ([1]; Nickel 400 μM, 54 h): 0.18 ± 0.10 g/L
- Ethanol ([1]; Nickel 400 μM, 54 h): 0.21 ± 0.02 g/L
- OD600 nm ([1]; Nickel 400 μM, 54 h): 0.087 ± 0.011
- Acetate ([1]; Nickel 400 μM, 102 h): 1.05 ± 0.85 g/L
- Ethanol ([1]; Nickel 400 μM, 102 h): 0.68 ± 0.41 g/L
- OD600 nm ([1]; Nickel 400 μM, 102 h): 0.337 ± 0.129
- Acetate ([1]; Nickel 400 μM, 127 h): 1.44 ± 0.83 g/L
- Ethanol ([1]; Nickel 400 μM, 127 h): 0.68 ± 0.21 g/L
- OD600 nm ([1]; Nickel 400 μM, 127 h): 0.452 ± 0.200
- Ethanol ([1]; Nickel 700 μM, 0 h): 0.23 ± 0.03 g/L
- OD600 nm ([1]; Nickel 700 μM, 0 h): 0.011 ± 0.001
- Ethanol ([1]; Nickel 700 μM, 30 h): 0.24 ± 0.02 g/L
- OD600 nm ([1]; Nickel 700 μM, 30 h): 0.238 ± 0.023
- Acetate ([1]; Nickel 700 μM, 54 h): 0.25 ± 0.01 g/L
- Ethanol ([1]; Nickel 700 μM, 54 h): 0.25 ± 0.03 g/L
- OD600 nm ([1]; Nickel 700 μM, 54 h): 0.292 ± 0.013
- Acetate ([1]; Nickel 700 μM, 102 h): 0.94 ± 0.14 g/L
- Ethanol ([1]; Nickel 700 μM, 102 h): 0.73 ± 0.05 g/L
- OD600 nm ([1]; Nickel 700 μM, 102 h): 0.714 ± 0.060
- Acetate ([1]; Nickel 700 μM, 127 h): 0.95 ± 0.16 g/L
- Ethanol ([1]; Nickel 700 μM, 127 h): 0.72 ± 0.03 g/L
- OD600 nm ([1]; Nickel 700 μM, 127 h): 0.620 ± 0.021
- Ethanol ([1]; Nickel 1000 μM, 0 h): 0.29 ± 0.04 g/L
- OD600 nm ([1]; Nickel 1000 μM, 0 h): 0.010 ± 0.001
- Ethanol ([1]; Nickel 1000 μM, 30 h): 0.28 ± 0.02 g/L
- OD600 nm ([1]; Nickel 1000 μM, 30 h): 0.268 ± 0.080
- Acetate ([1]; Nickel 1000 μM, 54 h): 0.38 ± 0.01 g/L
- Ethanol ([1]; Nickel 1000 μM, 54 h): 0.26 ± 0.03 g/L
- OD600 nm ([1]; Nickel 1000 μM, 54 h): 0.389 ± 0.071
- Acetate ([1]; Nickel 1000 μM, 102 h): 1.57 ± 0.21 g/L
- Ethanol ([1]; Nickel 1000 μM, 102 h): 1.02 ± 0.09 g/L
- OD600 nm ([1]; Nickel 1000 μM, 102 h): 0.720 ± 0.105
- Acetate ([1]; Nickel 1000 μM, 127 h): 1.78 ± 0.11 g/L
- Ethanol ([1]; Nickel 1000 μM, 127 h): 0.99 ± 0.11 g/L
- OD600 nm ([1]; Nickel 1000 μM, 127 h): 0.674 ± 0.098
- total microbial cell density ([2]; 0.1 mM nickel above LM33): 1.1 g/L
- total microbial cell density ([2]; 1 mM nickel above LM33): 1.2 g/L
- Acetate ([2]; Additional Nickel 0.1 mM, 18 h): 0.57 g/L
- Cell density ([2]; Additional Nickel 0.1 mM, 18 h): 0.14 g/L
- Ethanol ([2]; Additional Nickel 0.1 mM, 18 h): 0.37 g/L
- Acetate ([2]; Additional Nickel 0.1 mM, 30 h): 0.61 g/L
- Cell density ([2]; Additional Nickel 0.1 mM, 30 h): 0.54 g/L
- Ethanol ([2]; Additional Nickel 0.1 mM, 30 h): 2.63 g/L
- Acetate ([2]; Additional Nickel 0.1 mM, 80 h): 0.38 g/L
- Cell density ([2]; Additional Nickel 0.1 mM, 80 h): 1.08 g/L
- Ethanol ([2]; Additional Nickel 0.1 mM, 80 h): 7.14 g/L
- Acetate ([2]; Additional Nickel 1 mM, 18 h): 0.48 g/L
- Cell density ([2]; Additional Nickel 1 mM, 18 h): 0.18 g/L
- Ethanol ([2]; Additional Nickel 1 mM, 18 h): 0.47 g/L
- Acetate ([2]; Additional Nickel 1 mM, 30 h): 0.85 g/L
- Cell density ([2]; Additional Nickel 1 mM, 30 h): 0.59 g/L
- Ethanol ([2]; Additional Nickel 1 mM, 30 h): 2.59 g/L
- Acetate ([2]; Additional Nickel 1 mM, 80 h): 0.66 g/L
- Cell density ([2]; Additional Nickel 1 mM, 80 h): 1.23 g/L
- Ethanol ([2]; Additional Nickel 1 mM, 80 h): 9.04 g/L
- Acetic Acid ([3]; 12 h after inoculation): 0.42 g/L
- Cell density ([3]; 12 h after inoculation): 0.16 g/L
- Ethanol ([3]; 12 h after inoculation): 0.25 g/L
- Fructose ([3]; 12 h after inoculation): 2.87 g/L
- Acetic Acid ([3]; 18 h after inoculation): 0.48 g/L
- Cell density ([3]; 18 h after inoculation): 0.20 g/L
- Ethanol ([3]; 18 h after inoculation): 0.61 g/L
- Fructose ([3]; 18 h after inoculation): 2.4 g/L
- Acetic Acid ([3]; 30 h after inoculation): 0.45 g/L
- Cell density ([3]; 30 h after inoculation): 0.73 g/L
- Ethanol ([3]; 30 h after inoculation): 4.19 g/L
- Fructose ([3]; 30 h after inoculation): 0 g/L
- Acetic Acid ([3]; 80 h after inoculation): 0.38 g/L
- Cell density ([3]; 80 h after inoculation): 0.98 g/L
- Ethanol ([3]; 80 h after inoculation): 7.60 g/L
- Fructose ([3]; 80 h after inoculation): 0 g/L
- Acetic Acid ([3]; 96 h after inoculation): 0.31 g/L
- Cell density ([3]; 96 h after inoculation): 1.07 g/L
- Ethanol ([3]; 96 h after inoculation): 7.81 g/L
- Fructose ([3]; 96 h after inoculation): 0 g/L
